The values below come from PubChem BioAssay AID2060619 (Molecular Pharmacology Branch, DTP, NCI, 2025).

“And” between values parts separate entries of the source, which are not always exact repeats. Equal entries are not always repeated.

In the test the test system is 323965-272-R-J2-PDC complex spheroid viability. The test is described as follows: Anticancer human tumor 323965-272-R-J2-PDC patient-derived pancreatic carcinoma cell line growth inhibition [CLK]. The settings on record: for viability, T/C: stronger effect = lower value. The text has this: A high-throughput screen of multi-cell type tumor spheroids was designed to identify active combinations of […] and targeted small molecules. Complex spheroids include a stromal component modeled by human endothelial cells (HUVEC) and fibroblasts modeled by human mesenchymal stem cells (MSCs). The concentration ranges selected for each drug and investigational agent were based upon clinically achievable concentrations if the clinical Cmax of the agent was known.
Compounds. The drugs and investigational agents: cirtuvivint (SM08502; NSC835563), CC-671 (NSC850746), vemurafenib (NSC761431), tapotoclax (NSC804041), sotorasib (NSC818433), adagrasib (NSC831453), MRTX-1133 (NSC836407), BAY2416964 (NSC825713), copanlisib (NSC816437), inavolisib (NSC800729), abemaciclib (NSC768073), osimertinib (NSC779217), entinostat (NSC756642), eltanexor (KPT-8602, NSC794443), venetoclax (NSC766270), ceralasertib (NSC777638), bortezomib (NSC756655), olaparib (NSC753686), talazoparib (NSC767125), alisertib (NSC759677), peposertib (NSC802822), gemcitabine (NSC613327), 5-fluorouracil (NSC19893), SN-38 (NSC673596), oxaliplatin (NSC266046), paclitaxel (NSC125973), and doxorubicin (NSC123127), were obtained from the National Cancer Institute (NCI) Developmental Therapeutics Program Chemical Repository. The FDA-approved anticancer drug set is available from the Developmental Therapeutics Program at https://dtp.cancer.gov/organization/dscb/obtaining/available plates.htm. […] The stock solutions were prepared in dimethyl sulfoxide (DMSO, Sigma-Aldrich, St. Louis, MO, cat. D2650), except for the platinum complexes which were prepared in saline (Quality Biological, Gaithersburg, MD, cat. 114-055-101), at 800-fold the tested concentration and stored at -70 degrees C prior to their use. All drugs and investigational agents were tested over a range starting from a high concentration at or near the clinical Cmax and decreasing in half-log increments. If the clinical Cmax for an agent had not been determined, the highest concentration tested was 10 microM.
Cell Culture. All cells were maintained in an incubator at 37 degrees C and 5% CO2 with 95% humidity. The PDC lines were cultured according to standard operating procedures established by the NCI PDMR. Briefly, all PDCs were thawed and cultured in Matrigel-coated flasks prepared with a working solution of 1X Ham's F-12 nutrient mix, without supplementation (Invitrogen, Waltham, MA, cat. 11765054), 100 U/mL penicillin-streptomycin (Invitrogen, cat. 15140122), and 2.5% Matrigel (Corning Inc., Corning, NY, cat. 354248) for the first three passages. The 947758-054-R-J2-PDC line was cultured in 6B/Colon 1A media, which includes advanced DMEM/F-12 (Thermo Fisher Scientific, cat. 12634028), 10 mM HEPES (Thermo Fisher Scientific, cat. 15630080), 1X GlutaMAX supplement (Thermo Fisher Scientific, cat. 35050061), 0.1 mg/mL primocin (InvivoGen, cat. ant-pm-2), 10% defined fetal bovine serum, heat inactivated (HyClone Laboratories Inc., cat. SH30070.03HI), 1.25 mM N-Acetyl-L-cysteine (Sigma-Aldrich, cat. A9165), 10 mM nicotinamide (Sigma-Aldrich, cat. N0636), 1X B-27 supplement (Thermo Fisher Scientific, cat. 17504044), 1X N-2 supplement (Thermo Fisher Scientific, cat. 17502048), and 10 microM Y-27632 dihydrochloride (Tocris Bioscience, cat. 1254). The 876862-298-R-J1-PDC was cultured in 6E media, which includes all 6B/Colon 1A media components plus 50% L-WRN conditioned media (ATCC, cat. CRL-3276), 50 ng/mL recombinant human EGF recombinant protein (hEGF; Thermo Fisher Scientific, cat. PHG0311), 10 ng/mL recombinant human fibroblast growth factor 10 (hGFG-10; PeproTech, cat. 100-26), 1 ng/mL recombinant human fibroblast growth factor 2 (hFGF-2; PeproTech, cat. 100-18B), and 1 µM prostaglandin E2 (PGE2; Tocris, cat. 2296). The 227483-062-R1-J1-PDC line was cultured in Panc media, containing all 6E components except hFGF-2, with the addition of 500 nM SB-431542 (Selleckchem, cat. S1067) and 10 nM gastrin (Tocris, cat. 3006). […]
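Also: spheroids exposed to agents for seven days before readout.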
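For viability, T/C in this document: percent of DMSO vehicle control wells so 100% = untreated growth.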

In general, viability, T/C refers to the result in the treated group divided by that in the control group, in per cent. The term IC50 denotes the concentration that inhibits the measured activity by half. With `CC(=O)O[C@H]1C(=O)[C@@]2(C)[C@H]([C@H](OC(=O)c3ccccc3)[C@]3(O)C[C@H](OC(=O)[C@H](O)[C@@H](NC(=O)c4ccccc4)c4ccccc4)C(C)=C1C3(C)C)[C@]1(OC(C)=O)CO[C@@H]1C[C@@H]2O`, the viability, T/C was 35.3% and 32% (compound 0.0316 µM); 36.8% and 34.2% (compound 0.1 µM); 33.2% and 32.9% (compound 0.316 µM); 34.6% and 33.4% (compound 1 µM); 39.6% and 35.1% (compound 3.16 µM); 35.9% and 36.3% (compound 10 µM). Besides, the IC50 (curve of compound) was less than 31.6 nM.

Regarding `CC1COCCN1c1cc(C2(S(C)(=N)=O)CC2)nc(-c2ccnc3[nH]ccc23)n1` (stereo unspecified), the viability, T/C (compound 0.0316 µM) is 103% and 106%; the viability, T/C (compound 0.1 µM) was 99.9% and 91.9%; the viability, T/C (compound 0.316 µM) was 90.5% and 90.1%; the viability, T/C (compound 1 µM) was 70.1% and 62.4%; the viability, T/C (compound 3.16 µM) is 37.1% and 40.2%; the viability, T/C (compound 10 µM) was 31.6% and 31%. Where the note is “curve of compound”, the IC50 was 2070 nM and 1960 nM.

As for `CNC(=O)c1ccc(Nc2nc(OC3CCCC3)c3c(-c4ccc5nc(C)oc5c4)c[nH]c3n2)c(OC)c1`, the viability, T/C runs as follows: (compound 0.1 µM) 87.2% [middle of 12 runs]; (compound 0.316 µM) 65.7% [middle of 12 runs]; (compound 1 µM) 49.8% [middle of 12 runs]; (compound 3.16 µM) 44.7% [middle of 12 runs]; (compound 10 µM) 47.2% [middle of 12 runs].

As for `COc1ccc([C@@H](O)c2cc(-c3ncnc4cc(N5CCOCC5)ccc34)c(F)cc2Cl)nn1`, the viability, T/C (compound 0.0316 µM) is 105% and 109%; the viability, T/C (compound 0.1 µM) is 116% and 106%; the viability, T/C (compound 0.316 µM) is 110% and 95.9%; the viability, T/C (compound 1 µM) was 92.8% and 92.9%; the viability, T/C (compound 3.16 µM) is 79.5% and 68.8%; the viability, T/C (compound 10 µM) is 50.6% and 50.3%. Further, for the setting “curve of compound”, the IC50 was > 10000 nM and 9920 nM.

With `COc1cccc2c1C(=O)c1c(O)c3c(c(O)c1C2=O)CC(O)(C(=O)CO)CC3OC1CC(N)C(O)C(C)O1` (stereo unspecified), the viability, T/C is, setting by setting: (compound 0.0316 µM) 87.4% and 66.2%; (compound 0.1 µM) 40.6% and 41.4%; (compound 0.316 µM) 38.4% and 37%; (compound 1 µM) 44.7% and 30.5%; (compound 3.16 µM) 30.1% and 21.3%; (compound 10 µM) 2.57% and 0.82%. Moreover, where the note is “curve of compound”, the IC50 is 240 nM and 97.6 nM.

Take `Nc1ccn(C2OC(CO)C(O)C2(F)F)c(=O)n1` (stereo unspecified): the viability, T/C is, setting by setting: (compound 0.0316 µM) 30.7% and 33.9%; (compound 0.1 µM) 35.3% and 38.5%; (compound 0.316 µM) 30% and 29.5%; (compound 1 µM) 37.3% and 32.3%; (compound 3.16 µM) 32.7% and 31.5%; (compound 10 µM) 28.6% and 33.3%. For the same compound, where the note is “curve of compound”, the IC50 is less than 31.6 nM.

In the case of `O=C(c1cc(Cc2n[nH]c(=O)c3ccccc23)ccc1F)N1CCN(C(=O)C2CC2)CC1`, the viability, T/C reads like this: (compound 0.0316 µM) 105% and 107%; (compound 0.1 µM) 103% and 102%; (compound 0.316 µM) 100% and 98.1%; (compound 1 µM) 103% and 90.2%; (compound 3.16 µM) 108% and 107%; (compound 10 µM) 84.3% and 81.5%. Moreover, the IC50 (curve of compound) is greater than 10000 nM.

`O=c1[nH]cc(F)c(=O)[nH]1`: the viability, T/C by setting is: (compound 0.0316 µM) 116% and 95.3%; (compound 0.1 µM) 105% and 91.3%; (compound 0.316 µM) 111% and 103%; (compound 1 µM) 96.9% and 96.8%; (compound 3.16 µM) 67.9% and 76.6%; (compound 10 µM) 51.1% and 52.5%. Further, for the setting “curve of compound”, the IC50 was greater than 10000 nM.

`CCCS(=O)(=O)Nc1ccc(F)c(C(=O)c2c[nH]c3ncc(-c4ccc(Cl)cc4)cc23)c1F` + CN1CCN(c2cc(C(=O)Nc3cc4cc(-c5cnn(C)c5)ccc4cn3)ccn2)CC1: the IC50 was greater than 10000 nM (curve of first compound, second compound 0.0316 µM); greater than 10000 nM (curve of first compound, second compound 0.1 µM); less than 31.6 nM (curve of first compound, second compound 0.316 µM); less than 31.6 nM (curve of first compound, second compound 1 µM); less than 31.6 nM (curve of first compound, second compound 3.16 µM); less than 31.6 nM (curve of first compound, second compound 10 µM). Besides, the viability, T/C was 97.9% (second compound 0.0316 µM, first compound 0.0316 µM); 102% (second compound 0.0316 µM, first compound 0.1 µM); 102% (second compound 0.0316 µM, first compound 0.316 µM); 111% (second compound 0.0316 µM, first compound 1 µM); 101% (second compound 0.0316 µM, first compound 3.16 µM); 78.7% (second compound 0.0316 µM, first compound 10 µM). For the same compound, the viability, T/C (second compound 0.1 µM, first compound 0.0316 µM) was 68.4%; the viability, T/C (second compound 0.1 µM, first compound 0.1 µM) was 68.1%; the viability, T/C (second compound 0.1 µM, first compound 0.316 µM) was 80.1%; the viability, T/C (second compound 0.1 µM, first compound 1 µM) was 83%; the viability, T/C (second compound 0.1 µM, first compound 3.16 µM) was 84.7%; the viability, T/C (second compound 0.1 µM, first compound 10 µM) is 66.5%. Moreover, the viability, T/C reads like this: (second compound 0.316 µM, first compound 0.0316 µM) 28.1%; (second compound 0.316 µM, first compound 0.1 µM) 26.3%; (second compound 0.316 µM, first compound 0.316 µM) 30.5%; (second compound 0.316 µM, first compound 1 µM) 34.7%; (second compound 0.316 µM, first compound 3.16 µM) 32.3%; (second compound 0.316 µM, first compound 10 µM) 35%. The viability, T/C reads like this: (second compound 1 µM, first compound 0.0316 µM) 4.7%; (second compound 1 µM, first compound 0.1 µM) 3.95%; (second compound 1 µM, first compound 0.316 µM) 3.77%; (second compound 1 µM, first compound 1 µM) 4.38%; (second compound 1 µM, first compound 3.16 µM) 4.19%; (second compound 1 µM, first compound 10 µM) 6.54%. The viability, T/C by setting is: (second compound 3.16 µM, first compound 0.0316 µM) 4.04%; (second compound 3.16 µM, first compound 0.1 µM) 4.11%; (second compound 3.16 µM, first compound 0.316 µM) 4.16%; (second compound 3.16 µM, first compound 1 µM) 4.42%; (second compound 3.16 µM, first compound 3.16 µM) 5.61%; (second compound 3.16 µM, first compound 10 µM) 6.54%. For the same compound, the viability, T/C (second compound 10 µM, first compound 0.0316 µM) was 4.15%; the viability, T/C (second compound 10 µM, first compound 0.1 µM) was 4.79%; the viability, T/C (second compound 10 µM, first compound 0.316 µM) is 4.2%; the viability, T/C (second compound 10 µM, first compound 1 µM) was 4.29%; the viability, T/C (second compound 10 µM, first compound 3.16 µM) was 4.87%; the viability, T/C (second compound 10 µM, first compound 10 µM) is 5.79%.
